Experimental findings from US6503721B2, “Screen for compounds with affinity for nucleic acids” (Anadys Pharmaceuticals, Inc., priority 1995, dated 2003) are described below.

Test [1] concerns AB-RNA. The experiment in a line: Hybrid capture on streptavidin-coated paramagnetic beads (AB-RNA : biotinylated oligonucleotide RBS-96-60). In kind it is binding. The text has this:
SA coated paramagnetic beads: The washing step required when using SA-beads can be facilitated by using paramagnetic-SA coated beads (PMP-SA). These beads are commercially available (Promega, Madison, Wis.) and can be concentrated and held by a magnet. Positioning the magnet under the plate during washing steps concentrates and retains the beads at the bottom of the well during the washing procedure thus preventing loss of beads and allowing faster operation. An example of the use of this method is described in Example 2 below. The [^32P]-labelled ATP-binding RNA described in Example 1 above (AB-RNA) was heat denatured at 90° C. for 2 min in binding buffer (50 mM Tris pH 7.5, 200 mM NaCl, and 10 mM MgCl2) and chilled on ice for 2 min. 37.5 μl aliquots of the heat denatured AB-RNA were then mixed with 12.5 μl of a solution containing 12.5 pmol of the 5′-biotinylated oligonucleotide RBS-96-60 (having a nucleotide sequence identical to RBS-87-8A described in Example 1 above) and varying amounts of ATP or UTP. After a brief incubation at room temperature, the mixture was transferred into 96-well plates containing 0.5 mg paramagnetic beads coated with streptavidin (PMP-SA) (Promega, Madison, Wis.). Plates were incubated at room temperature for 15 min to allow binding. […] [^32P]-labelled AB-RNA bound to the beads was then quantitated by Cerenkov counting in a Microbetta LSC-counter (Wallac).

The target in test [2] is AB-RNA. The experiment in a line: SCAN nitrocellulose filter binding assay, AB-RNA and biotinylated oligonucleotide 67B. As to the method:
Adsorption to nitrocellulose filters: This embodiment takes advantage of the fact that most proteins tightly adsorb to nitrocellulose filters. When using a biotinylated oligonucleotide and a labelled target RNA, free SA or a SA derivative such as SA:alkaline phosphatase conjugate (SA:AP), SA:β-galactosidase (SA:BG), or other SA-conjugate or fusion protein, is added to the reaction to allow binding to the biotin moiety in the oligonucleotide. Subsequently, the reaction is filtered through 96-well nitrocellulose filter plates (Millipore, Bedford, Mass., HATF or NC). Labeled target RNA hybridized to the biotinylated oligonucleotide is retained in the filter through the adsorption of SA or its derivative to the filter, while unhybridized RNA passes through. […] Therefore, the use of SA fusion proteins or conjugates is preferred. An example of the use of this method is described in Example 3 below. SCAN reactions containing 100 nM radiolabeled AB-RNA and 250 nM biotinylated oligonucleotide 67B were incubated with increasing amounts of ATP or UTP as test ligands. In the absence of test ligand, 70% of AB-RNA was retained on NC-filters. Inhibition of RNA retention on NC-filters Inhibition of RNA retention on NC-filters (% inhibtion) was obtained as (1−(R/R0)×100), where R0 is retention without test ligand and R is retention with test ligand. […]

The test system of a further test is HIV RRE RNA. The experiment in a line: SCAN nitrocellulose filter binding assay, RRE RNA and biotinylated complementary oligonucleotide. Conditions: heterologous RNA target, FIG. 17. As to the method:
Adsorption to nitrocellulose filters: This embodiment takes advantage of the fact that most proteins tightly adsorb to nitrocellulose filters. When using a biotinylated oligonucleotide and a labelled target RNA, free SA or a SA derivative such as SA:alkaline phosphatase conjugate (SA:AP), SA:β-galactosidase (SA:BG), or other SA-conjugate or fusion protein, is added to the reaction to allow binding to the biotin moiety in the oligonucleotide. Subsequently, the reaction is filtered through 96-well nitrocellulose filter plates (Millipore, Bedford, Mass., HATF or NC). Labeled target RNA hybridized to the biotinylated oligonucleotide is retained in the filter through the adsorption of SA or its derivative to the filter, while unhybridized RNA passes through. […] Therefore, the use of SA fusion proteins or conjugates is preferred. An example of the use of this method is described in Example 3 below.
The target RNA was an RNA molecule containing the binding site for the HIV Rev protein (Rev Responsive Element, RRE; 5′-GAAUACUAUGGGCGCAGCGUCAAUGACGCUGACGGUACAGGCCAGACAAUUAUUGUCUGGUAUAGU-3′- SEQ ID NO:2) which had been labelled with 32P as described in Example 1 above. […] The filtrate was further washed with 400 μl of the same buffer and the amount of RRE retained in the filter was determined by liquid scintillation counting. […]

For test [3], the system named is AB RNA. As to the kind of experiment: SCAN assay under equilibrium conditions (dissociation of pre-formed AB RNA:oligonucleotide complexes). The format is binding. Conditions: 100 μM ATP, 20 nM AB RNA, 100 nM oligonucleotide. The source says:
A screening assay having this configuration has the advantage of removing time constraints for various steps in the assay. In addition, thermodynamic parameters associated with ligand binding can be more easily derived from the results of the assay. Using a series of oligonucleotides of various length and target sites comprising AB RNA, a group of oligonucleotides has been identified that fully equilibrate with ATP (an example is shown in FIG. 20, top panel). The oligonucleotide used is complementary to the sequence shown in bold-faced letters (FIG. 20, top panel). Target RNA:oligonucleotide complexes were pre-formed by incubated a solution containing 100 nM AB RNA and 500 nM oligonucleotide for 2 h at 25° C. Dissociation was initiated by diluting the reaction 5-fold in the presence or absence of 100 μM ATP (resulting in final concentrations of AB RNA, 20 nM; oligonucleotide, 100 nM; ATP, 100 μM). Binding of hybrids to nitrocellulose filters was performed as described above.

Test [4] deals with AB RNA. The experiment in a line: UV absorbance (260 nM) thermal melting of AB RNA. In kind it is binding. As to the method: The experiment described below was performed to monitor the stabilization of an RNA structure upon ligand binding. In this experiment, absorbance at 260 nm was monitored as the temperature of the sample was increased. The increase in temperature causes the RNA to unfold, thereby allowing individual bases to absorb more ultraviolet light.

For the next test, the system named is AB-RNA-F. As to the kind of experiment: Fluorescence SCAN assay, fluorescein-labelled AB-RNA-F and unlabelled oligonucleotide 67B. Conditions: for effect on fluorescence increase: FIG. 28B. In kind it is binding. As for the experimental part: B. Experimental results: While developing a SCAN assay based on FET between 3′-fluorescein labeled AB-RNA (AB-RNA-F) and a 5′-rhodamine labeled oligonucleotide, it was unexpectedly observed in a control experiment that a substantial increase in fluorescein emission at 535 nm occurred upon addition of an oligonucleotide carrying no fluorescent labels (FIG. 28A). Reactions containing 50 mM Tris pH 7.5, 200 mM NaCl, 10 mM MgCl2, and 60 nM AB-RNA-F were monitored at 535 nm emission (485 nm excitation) in a CytoFluor II fluorescence multi-well plate reader (PerSeptive Biosystems, Framingham,Mass.) for increasing times after the addition of oligonucleotide 67B. Because of the high reproducibility and sensitivity of fluorescence spectrophotometers, a 2-fold increase in fluorescence represents more that sufficient change in signal to use it as a sensitive assay. Therefore, the effect of ATP, GTP and UTP was tested in SCAN reactions containing AB-RNA-F and the unlabeled oligonucleotide 67B (FIG. 28B).

Test [5] deals with AB-RNA. As to the kind of experiment: Gel shift assay: hybridization of radiolabelled AB-RNA to complementary DNA oligonucleotide RBS-87-8A. Conditions: 30 μM ligand. The format is binding. The source says:
A gel shift protocol, though nominally a low-throughput method, is an important tool for the initial selection of the assay configuration for oligonucleotide-based methods to be used with each particular target RNA. Typically, the target RNA is transcribed in vitro, using as template a DNA that contains the sequence for the T7-RNA polymerase promoter followed by a region encoding the target RNA, and [^32P]-UTP to produce radiolabelled RNA. Conditions for the T7 RNA polymerase transcription reaction using oligonucleotide templates have been described by Milligan et al., Nuc. Acids Res., 15: 8783, 1987. The [^32P]-labelled target RNA is optionally heat denatured at 90° C. for 2 min and chilled on ice for 2 min, after which aliquots are incubated in the absence and presence of test ligands and increasing concentrations of a complementary oligonucleotide. The reaction mixtures are then resolved in polyacrylamide native gels containing or lacking the test ligands.
AB-RNA was transcribed using as template the DNA oligonucleotide RBS-87-8A, (5′-GGAACCTTGCCGGCACCGAAGTGCCGCAGTTTCTTCCCAAGGTTCCTATAGTGAGTCGTATTA-3′-SEQ ID NO:1), which contains the sequence for the T7-RNA polymerase promoter followed by a region encoding AB-RNA. [32P]-labelled AB-RNA was obtained by including [32P]-UTP in the transcription reaction. […]
In general terms: Mobility shift assays separate free from complexed probe on a gel.

SMILES strings stand for the structures.

In the case of `Nc1ncnc2c1ncn2[C@@H]1O[C@H](COP(=O)(O)OP(=O)(O)OP(=O)(O)O)[C@@H](O)[C@H]1O` [ATP], the IC50 in the test with AB-RNA [1] (PMP-SA beads, room temperature, read-out: ligand concentration reducing the amount of hybrids formed by 50%) was determined as 0.025 mM; at AB-RNA [2] (100 nM AB-RNA, 250 nM oligonucleotide 67B, read-out: ligand concentration inhibiting AB-RNA retention on NC-filters by 50%), 5 mM; in the test on AB-RNA-F (60 nM AB-RNA-F, emission 535 nm, read-out: IC50 for inhibition of fluorescence increase), 5 mM. Moreover, the “specificity factor ATP versus UTP” value in the test with AB-RNA [2] (ratio of concentrations for 50% inhibition) is on record as 100 fold. Also, the “effect on RRE based SCAN reactions” value in the test with HIV RRE RNA is “no effect”. In the test on AB RNA [3], the “inhibition of oligo:RNA complex” value is reported as “approximately 60%”. In addition, the “temperature of new transition in first derivative of absorbance, seen only with ligand” value with AB RNA [4] (absorbance at 260 nm, FIG. 21) came out at 40 °C. In addition, the “effect of ligand on RNA structure” value with AB RNA [4] (thermal melting) was “stabilizes the RNA structure”.

As for `Nc1nc2c(ncn2[C@@H]2O[C@H](COP(=O)(O)OP(=O)(O)OP(=O)(O)O)[C@@H](O)[C@H]2O)c(=O)[nH]1` [GTP], in the test on AB-RNA-F, the “effect on fluorescence increase” value is on record as “no effect at all”.

For `O=c1ccn([C@@H]2O[C@H](COP(=O)(O)OP(=O)(O)OP(=O)(O)O)[C@@H](O)[C@H]2O)c(=O)[nH]1` [UTP], the “competition with the oligonucleotide for binding to AB-RNA” value in the test with AB-RNA [5] is given as “unable to compete”. For the same compound, the “effect on amount of hybrids bound to PMP-SA beads” value in the test with AB-RNA [1] (increasing ligand concentrations) is recorded as “no effect”. The “effect on fluorescence increase” value in the test on AB-RNA-F is listed as “some effect at much higher concentrations”.
